Reference: US20260285853A1, “COMPOUNDS AND METHODS FOR MODULATING SPLICING” (REMIX THERAPEUTICS INC., priority 2023, published 2026)

Assays:
Type in all cases: cell-based
[1] = test system: SH-SY5Y (human neuroblastoma) cells; assay: Cell viability, Cell Titer Glo 2.0 assay; settings: read-out: Viability SHSY5Y.3 GI50
Outline: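 Toxicity screen in SH-SY5Y cells. Compounds were serially diluted in DMSO and then in medium, giving 0.1% DMSO final. Viability was read with CellTiter-Glo 2.0 after 72 h at 37 °C, 5% CO2, against medium-only blank wells.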

HTT mRNA [2] = assay: Gene panel canonical junction qPCR assay, decrease in CJ mRNA, Table 3; settings: decrease in canonical junction (CJ) mRNA, gene panel qPCR, Table 3
Outline: (§1)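 A673 (DMEM, 10% FBS, 15,000 cells/well) or K562 (IMDM, 10% FBS) cells treated 24 h at 37 °C with 11-point 3-fold dilutions, top 10 uM, DMSO ≤0.25%. Canonical exon-exon junction mRNA measured by RT-qPCR, normalized to GAPDH, GUSB or PPIA and DMSO (ΔΔCt); IC50 from 4-parameter logistic fit.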

MYB mRNA [3] = assay: as above; settings: decrease in canonical junction (CJ) mRNA, gene panel qPCR, Table 3
Outline: as §1

MYB mRNA [4] = assay: Splicing RT-qPCR assay (THP), Table 2A; settings: Table 2A (THP); for AC50: AJ mRNA increase, read-out: MYB AJ (increase in alternative junction mRNA, AC50); for IC50: CJ mRNA decrease, read-out: MYB CJ (decrease in canonical junction mRNA, IC50)
HTT mRNA [5] = assay: Splicing RT-qPCR assay (THP), Table 2A; settings: Table 2A (THP); for AC50: AJ mRNA increase, read-out: HTT AJ (increase in alternative junction mRNA, AC50); for IC50: CJ mRNA decrease, read-out: HTT CJ (decrease in canonical junction mRNA, IC50)

| Compound | GI50 [1] | IC50 (HTT mRNA [2]) | IC50 (MYB mRNA [3]) | AC50 (MYB mRNA [4]) | IC50 (MYB mRNA [4]) | AC50 (HTT mRNA [5]) | IC50 (HTT mRNA [5]) |
| --- | --- | --- | --- | --- | --- | --- | --- |
| CCNC1CCN(c2ccc(C(=O)Nc3nc4c(C)nc(C)cc4[nH]3)c3nn(C)cc23)CC1 [Compound 572, N-(4,6-dimethyl-1H-imidazo[4,5-c]-pyridin-2-yl)-4-[4-(ethylamino)-1-piperidyl]-2-methyl-indazole-7-carboxamide] | 1 to 10 µM | 1 to 10 µM | 1 to 10 µM | 1 to 10 µM | 1 to 10 µM | > 10 µM | 1 to 10 µM |
| COc1cn2nc(C)nc2cc1NC(=O)c1ccc(N2CCC(NC3CC3)CC2)c2cn(C)nc12 [Compound 573, 4-[4-(cyclopropylamino)-1-piperidyl]-N-(6-methoxy-2-methyl-[1,2,4]triazolo-[1,5-a]-pyridin-7-yl)-2-methyl-indazole-7-carboxamide] | > 10 µM | > 10 µM | > 10 µM | > 10 µM | > 10 µM | > 10 µM | > 10 µM |
| COc1cc2nccn2cc1NC(=O)c1ccc(N2CCC(NC3CC3)CC2)c2cn(C)nc12 [Compound 574, 4-[4-(cyclopropylamino)-1-piperidyl]-N-(7-methoxy-imidazo[1,2-a]pyridin-6-yl)-2-methylindazole-7-carboxamide] | 1 to 10 µM | > 10 µM | > 10 µM | > 10 µM | > 10 µM | > 10 µM | > 10 µM |
| Cc1cn2cc(NC(=O)c3ccc(N4CCC(NCC5CC5)CC4)c4cn(C)nc34)nc2c(C)n1 [Compound 575] | 1 to 10 µM | > 10 µM | 1 to 10 µM | 0.1 to 1 µM | 1 to 10 µM | > 10 µM | > 10 µM |
| CCNC1CC2(C1)CN(c1ccc(C(=O)Nc3cn4cc(C)nc(C)c4n3)c3nn(C)cc13)C2 [Compound 576] | 1 to 10 µM | > 10 µM | > 10 µM | > 10 µM | > 10 µM | > 10 µM | > 10 µM |
| COc1cc2nn(C)cc2cc1NC(=O)c1ccc(N2CCC(NCC3CC3)CC2)c2cn(C)nc12 [Compound 577] | 1 to 10 µM | 1 to 10 µM | 0.1 to 1 µM | < 0.1 µM | 0.1 to 1 µM | 1 to 10 µM | 1 to 10 µM |
| CCNC1CC2(C1)CN(c1ccc(C(=O)Nc3cc4cn(C)nc4cc3OC)c3nn(C)cc13)C2 [Compound 578] | 0.1 to 1 µM | 0.1 to 1 µM | 0.1 to 1 µM | 0.1 to 1 µM | 0.1 to 1 µM | 0.1 to 1 µM | 0.1 to 1 µM |
| Cc1cn2cc(NC(=O)c3ccc(N4CCC(NC5CC5)CC4)c4cn(C)nc34)nc2c(-c2cnn[nH]2)n1 [Compound 579, 4-(4-(cyclopropylamino)piper-idin-1-yl)-2-methyl-N-(6-methyl-8-(1H-1,2,3-triazol-5-yl)-imidazo[1,2-a]pyrazin-2-yl)-2H-indazole-7-carbox-amide 2,2,2-trifluoroacetate] | > 10 µM | > 10 µM | > 10 µM | > 10 µM | > 10 µM | > 10 µM | > 10 µM |
| Cc1cn2cc(NC(=O)c3ccc(N4CCC(N)CC4)c4cn(C)nc34)c(F)c2c(C)n1 [Compound 580, 4-(4-amino-1-piperidyl)-N-(8-fluoro-1,3-dimethyl-pyrrolo[1,2-a]-pyrazin-7-yl)-2-methyl-indazole-7-carboxamide] | 0.1 to 1 µM | > 10 µM | 1 to 10 µM | 1 to 10 µM | 1 to 10 µM | > 10 µM | > 10 µM |
| CNC1CCN(c2ccc(C(=O)Nc3cn4cc(C)nc(C)c4c3F)c3nn(C)cc23)CC1 [Compound 581, N-(8-fluoro-1,3-dimethyl-pyrrolo[1,2-a]-pyrazin-7-yl)-2-methyl-4-[4-(methylamino)-1-piperidyl]indazole-7-carboxamide] | 1 to 10 µM | > 10 µM | 1 to 10 µM | 1 to 10 µM | 1 to 10 µM | > 10 µM | > 10 µM |
| Cc1cc2[nH]c(NC(=O)c3ccc(N4CCC(NC5CC5)CC4)c4cn(C)nc34)nc2c(C)n1 [Compound 582, 4-[4-(cyclopropylamino)-1-piperidyl]-N-(4,6-dimethyl-1H-imidazo[4,5-c]pyridin-2-yl)-2-methyl-indazole-7-carboxamide] | 1 to 10 µM | > 10 µM | > 10 µM | > 10 µM | > 10 µM | > 10 µM | > 10 µM |
| CCNC1CCN(c2ccc(C(=O)Nc3nc4c(C)nc(C)cc4n3C)c3nn(C)cc23)CC1 [Compound 583, 4-[4-(ethylamino)-1-piperidyl]-2-methyl-N-(1,4,6-trimethyl-imidazo[4,5-c]pyridin-2-y1)-indazole-7-carboxamide] | > 10 µM | 1 to 10 µM | > 10 µM | > 10 µM | > 10 µM | 1 to 10 µM | 1 to 10 µM |
| C[C@H]1CN(c2ccc(C(=O)Nc3cc(F)c4nn(C)cc4c3)c3nn(C)cc23)C[C@H](C)N1 [Compound 584, 4-[(3S, 5S)-3,5-dimethylpiperazin-1-yl]-N-(7-fluoro-2-methyl-indazol-5-yl)-2-methyl-indazole-7-carboxamide] | 0.1 to 1 µM | 1 to 10 µM | < 0.1 µM | < 0.1 µM | < 0.1 µM | 1 to 10 µM | 1 to 10 µM |
| Cc1cn2cc(NC(=O)c3ccc(N4C[C@H](C)N[C@@H](C)C4)c4cn(C)nc34)cc(F)c2n1 [Compound 588, 4-[(3S, 5S)-3,5-dimethylpiperazin-1-yl]-N-(8-fluoro-2-methyl-imidazo[1,2-a]pyridin-6-yl)-2-methyl-indazole-7-carboxamide] | 0.1 to 1 µM | 1 to 10 µM | < 0.1 µM | < 0.1 µM | < 0.1 µM | 1 to 10 µM | 1 to 10 µM |
| CNC1CCC(Oc2ccc(C(=O)Nc3cn4cc(C)nc(C)c4n3)c3nn(C)cc23)CC1 (stereo not shown) [Compound 592] | 1 to 10 µM | 1 to 10 µM | 1 to 10 µM | 1 to 10 µM | 1 to 10 µM | 1 to 10 µM | 1 to 10 µM |
| CNC1CCCC(Oc2ccc(C(=O)Nc3cn4cc(C)nc(C)c4n3)c3nn(C)cc23)C1 (stereo not shown) [Compound 593] | > 10 µM | > 10 µM | > 10 µM | > 10 µM | > 10 µM | > 10 µM | > 10 µM |
| CNC1CCC(Oc2ccc(C(=O)Nc3cn4cc(C)nc(C)c4n3)c3nn(C)cc23)C1 (stereo not shown) [Compound 594] | > 10 µM | > 10 µM | > 10 µM | > 10 µM | > 10 µM | > 10 µM | > 10 µM |
| CNC1CCC(Oc2ccc(C(=O)Nc3cc4cn(C)nc4cc3OC)c3nn(C)cc23)CC1 (stereo not shown) [Compound 595] | 1 to 10 µM | 1 to 10 µM | > 10 µM | > 10 µM | > 10 µM | > 10 µM | 1 to 10 µM |
| CNC1CCCC(Oc2ccc(C(=O)Nc3cc4cn(C)nc4cc3OC)c3nn(C)cc23)C1 (stereo not shown) [Compound 596] | 1 to 10 µM | 1 to 10 µM | 1 to 10 µM | 1 to 10 µM | 1 to 10 µM | 1 to 10 µM | 1 to 10 µM |
